Assay results published in publication PMC10555500, “Evaluation of the Antiproliferative Properties of CpRu Complexes Containing N-Methylated Triazaphosphaadamantane Derivatives” (Bioinorganic Chemistry and Applications, 2023).

Assays:
[1] = tested on: normal human fibroblasts (HDF); assay: MTT cytotoxicity assay, normal human dermal fibroblasts; type: cell-based
Procedure: (§1) The MDA-MB-231 and MCF-7 human breast cancer cells were purchased from ATCC. The MDA-MB-231 and MCF-7 cells were grown in Dulbecco's modified Eagles' medium (DMEM high glucose) (Capricorn Scientific) at 37°C in 5% CO2 supplemented with 10% fetal bovine serum (Capricorn Scientific). HDF cells were purchased from Merck and were grown in the fibroblast growth medium. All cells were adherent in monolayers and, upon confluence, were washed with phosphate buffer saline (PBS) and harvested by digestion with trypsin-EDTA 0.05% (v/v). The cells were suspended and transferred into new, sterile, culture flasks for maintenance or seeded in sterile test microplates for different assays. All cells were manipulated under aseptic conditions in a flow chamber.
(§2) The cells were adherent in monolayers and, upon confluence, were harvested by digestion with trypsin. The cytotoxicity of the complexes against the tumour cells was assessed using the colorimetric assay MTT […], which evaluates the metabolic activity of viable cells. This assay measures the conversion of yellow tetrazolium into purple formazan by an active mitochondrial dehydrogenase in living cells. For this purpose, the cells (10–20 × 10^3 in 200 μL of the medium) were seeded into 96-well plates and incubated in a 5% CO2 incubator at 37°C. The cells were settled for 24 h followed by the addition of a dilution series of the complexes in a medium (200 μL). The complexes were first solubilized in 100% DMSO, given a 10 mM stock solution, and then in a medium within the concentration range of 0.1–100 µM. […] After 24 h of incubation, the treatment solutions were removed by aspiration, and MTT solution (200 μL, 0.5 mg·mL^−1 in PBS) was added to each well. After 3 h at 37°C/5% CO2, the solution was removed, and the purple formazan crystals formed inside the cells were dissolved in DMSO (200 μL) by thorough shaking. The cellular viability was evaluated by measuring the absorbance at 570 nm by using a microplate spectrophotometer. The IC50 values were obtained by dose-response curves using the GraphPad Prism software (vs. 5).

[2] = Stability in DMSO-d6 and DMSO-d6/D2O monitored by 31P{1H} NMR; type: physicochemical
Text: The assessment of the biological properties of the complexes requires their dissolution in a cell culture medium which is mainly constituted by water. When the complex is not hydrosoluble enough, the used protocol contemplates preliminary dissolution in DMSO before the addition to the culture medium. Thus, it is important to determine the stability and behaviour of the complexes in both DMSO and water/DMSO mixtures to check whether different species have been formed when dissolved. Dissolutions in DMSO-d6 and DMSO-d6/D2O of the new complexes 8 and 11 were monitored by ^31P{^1H} NMR over time at room temperature and 37°C. The stability studies of the rest of the complexes (1‐7, 9, 10) were published previously. All experiments were performed by a similar procedure: the complex (0.01 g) was introduced into a 5 mm NMR tube and dissolved in 0.5 mL of degassed solvent (DMSO-d6 and a 1 : 1 mixture of DMSO-d6/D2O). The solution was left at room temperature and monitored by ^31P{^1H} NMR first every 15 minutes, and later in longer periods. Stability was also monitored at incubation cell-based assay temperature (37°C).
All compounds were studied for their stability in 100% DMSO-d6 and DMSO-d6/D2O mixture by using NMR spectroscopy in common aerobic conditions. All experiments were performed by a similar procedure: the complex (0.01 g) was introduced into a 5 mm NMR tube and dissolved in 0.5 mL of degassed solvent (DMSO-d6 and a 1:1 mixture of DMSO-d6/D2O). The solution was left at room temperature and monitored by ^31P{^1H} NMR first every 15 minutes, and later in longer time periods. Stability was also monitored at incubation cell-based assays temperature (37 °C).

[3] = tested on: MDA-MB-231 breast cancer cells; assay: MTT cytotoxicity assay, MDA-MB-231 cells; type: cell-based, human; settings: 24 h incubation, MTT, average of at least three experiments (±SD)
Procedure: as §1, §2
The MDA-MB-231 and MCF-7 human breast cancer cells were purchased from ATCC. MDA-MB-231 and MCF-7 cells were grown in Dulbecco’s modified Eagles’s medium (DMEM high glucose) (Capricorn Scientific) at 37 °C in 5% CO2 supplemented with 10% fetal bovine serum (Capricorn Scientific). All cells were adherent in monolayers and, upon confluence, were washed with phosphate buffer saline (PBS) and harvested by digestion with Trypsin-EDTA 0.05% (v/v). The cells were suspended and transferred into new, sterile, culture flasks, for maintenance or seeded in sterile test microplates for different assays. All cells were manipulated under aseptic conditions in a flow chamber.
The cells were adherent in monolayers and, upon confluency, were harvested by digestion with trypsin. The cytotoxicity of the complexes against the tumour cells was assessed using the colorimetric assay MTT […], which evaluate the metabolic activity of viable cells. This assay measures the conversion of the yellow tetrazolium into purple formazan by an active mitochondrial dehydrogenase in living cells. For this purpose, cells (10-20 × 10^3 in 200 μL of medium) were seeded into 96-well plates and incubated in a 5% CO2 incubator at 37 °C. The cells were settled for 24 h followed by the addition of a dilution series of the complexes in medium (200 μL). The complexes were first solubilized in 100% DMSO, given a 10 mM stock solution, and then in medium within the concentration range of 0.1–100 µM. […] After 24 h of incubation, the treatment solutions were removed by aspiration, and MTT solution (200 μL, 0.5 mg·mL^-1 in PBS) was added to each well. After 3 h at 37 °C/5% CO2, the solution was removed, and the purple formazan crystals formed inside the cells were dissolved in DMSO (200 μL) by thorough shaking. […]

[4] = tested on: MCF-7 breast cancer cells; assay: MTT cytotoxicity assay, MCF-7 cells; type: cell-based, human; settings: 24 h incubation, average of at least three experiments (±SD)
Procedure: as §1
The cells were adherent in monolayers and, upon confluence, were harvested by digestion with trypsin. The cytotoxicity of the complexes against the tumour cells was assessed using the colorimetric assay MTT […], which evaluates the metabolic activity of viable cells. This assay measures the conversion of yellow tetrazolium into purple formazan by an active mitochondrial dehydrogenase in living cells. For this purpose, the cells (10–20 × 10^3 in 200 μL of the medium) were seeded into 96-well plates and incubated in a 5% CO2 incubator at 37°C. The cells were settled for 24 h followed by the addition of a dilution series of the complexes in a medium (200 μL). The complexes were first solubilized in 100% DMSO, given a 10 mM stock solution, and then in a medium within the concentration range of 0.1–100 µM. […] The cellular viability was evaluated by measuring the absorbance at 570 nm by using a microplate spectrophotometer. […]
The cells were adherent in monolayers and, upon confluency, were harvested by digestion with trypsin. The cytotoxicity of the complexes against the tumour cells was assessed using the colorimetric assay MTT […], which evaluate the metabolic activity of viable cells. […]

CN1CN2CN(C)C[P]([Ru+2]([P](c3ccccc3)(c3ccccc3)c3ccccc3)[P](c3ccccc3)(c3ccccc3)c3ccccc3)(C1)C2.O=S(=O)([O-])C(F)(F)F.[Cl][Pd][Cl].c1cc[cH-]c1 [Compound 11, [RuCp(PPh3)2-µ-dmoPTA-1κP-2κ^2N,N′-PdCl2](CF3SO3)]
IC50 ([1]; 24 h incubation, MTT, normal human fibroblasts): 1590 ± 450 nM
Fold less cytotoxic for fibroblasts (HDF) than for MCF-7 cells ([1]; selectivity HDF vs MCF-7): 2-3 fold
Fold less cytotoxic for fibroblasts (HDF) than for MDA-MB-231 cells ([1]; selectivity HDF vs MDA-MB-231): 1.5 fold
Fraction converted to complex 8 (solvolysis) in DMSO ([2]; DMSO-d6, visible after 4 h, constant up to 48 h): < 7%
Stability in DMSO-d6 ([2]; room temperature and 37°C, 48 h, 31P{1H} NMR): very stable
IC50 [3]: 1100 ± 200 nM
IC50 [4]: 730 ± 110 nM
